Holding throughout (format): in vivo, human
For experiment [1], the system named is sweet taste of a water solution containing 4% sucrose. The experiment can be described thus: Sensory panel, sweet taste in sucrose solution. As to conditions: for Intensity (sweet): Sucrose solution; for sweet enhancing effect for a sucrose solution (in words): summary of Tables 1-12. The source says: (§1) Methodology: A panel consisted of 8 to 25 trained panelists evaluating the samples for taste properties (sweet, and/or sweet off-taste such as lingering) on a scale of −5 to 5 (−5 denoted strong masking effect and 5 denoted strong enhancing effect, 0 being the intensity of a reference water solution containing 4% sucrose or 0.02% SG95 stevia product).

For experiment [2], the system named is sweet taste of a water solution containing 0.02% SG95 stevia product. As to the kind of experiment: Sensory panel, sweet taste in SG95 stevia product solution. Particulars: for Intensity (sweet): scale -5 to 5, 0 = reference 0.02% SG95; for sweet enhancing effect for an SG95 stevia product solution (in words): summary of Tables 5-6.
From the text: as §1

Experiment [3] relates to lingering (sweet off-taste) of a water solution containing 0.02% SG95 stevia product. The experiment can be described thus: Sensory panel, lingering off-taste in SG95 stevia product solution.
From the text: as §1

Setting [4] is: dosage 10 ppm, scale -5 (strong masking) to 5 (strong enhancing), 0 = reference 4% sucrose.
The mark [5] stands for this setting: dosage 40 ppm, scale -5 to 5, 0 = reference 4% sucrose.

As for `O=C1CC(c2ccc(O)c(O)c2)Oc2cc(O)c([C@@H]3O[C@H](CO)[C@@H](O)[C@H](O)[C@H]3O)c(O)c21` (stereo partly drawn) [Compound 4, eriodictyol 6-C-β-D glucoside], the “Intensity (sweet)” value in experiment [1] (setting [4]) worked out at 0.64. In addition, the “sweet enhancing effect for a sucrose solution (in words)” value in experiment [1] was “significant sweet enhancing effect”.

`COc1ccc(C2CC(=O)c3c(cc(O)c([C@@H]4O[C@H](CO)[C@@H](O)[C@H](O)[C@H]4O)c3O)O2)cc1O` (stereo partly drawn) [Compound 7, hesperetin 6-C-β-D glucoside]: the “Intensity (sweet)” value in experiment [1] (setting [4]) is 0.57. The “sweet enhancing effect for a sucrose solution (in words)” value in experiment [1] is recorded as “significant sweet enhancing effect”.

`O=C(CCc1ccc(O)cc1)c1c(O)cc(O)c([C@@H]2O[C@H](CO)[C@@H](O)[C@H](O)[C@H]2O)c1O` [Compound 21, nothofagin]: the “Intensity (sweet)” value in experiment [2] (dosage 20 ppm) came out at 0.25; in experiment [1] (setting [4]) it was 0.46. Further, the “sweet enhancing effect for an SG95 stevia product solution (in words)” value in experiment [2] was “sweet enhancing effect”. The “sweet enhancing effect for a sucrose solution (in words)” value in experiment [1] is on record as “significant sweet enhancing effect”.

Turning to `COc1ccc(C2CC(=O)c3c(O)c([C@@H]4O[C@H](CO)[C@@H](O)[C@H](O)[C@H]4O)c(O)c([C@@H]4O[C@H](CO)[C@@H](O)[C@H](O)[C@H]4O)c3O2)cc1O` (stereo partly drawn) [Compound 9, hesperetin 6,8-di-C-β-D glucoside], in experiment [1] (setting [4]), the “Intensity (sweet)” value turned out to be 0.31. Besides, the “sweet enhancing effect for a sucrose solution (in words)” value in experiment [1] is on record as “sweet enhancing effect”.

As for `C[C@@H]1O[C@@H](c2c(O)cc3c(c2O)C(=O)CC(c2ccc(O)cc2)O3)[C@H](O)[C@H](O)[C@H]1O` (stereo partly drawn) [Compound 15, naringenin 6-C-rhamnoside], the “sweet enhancing effect for a sucrose solution (in words)” value in experiment [1] is recorded as “sweet enhancing effect”.

On to `O=C1CC(c2ccc(O)cc2)Oc2cc(O)c([C@@H]3O[C@H](CO)[C@@H](O)[C@H](O)[C@H]3O)c(O)c21` (stereo partly drawn) [Compound 1, naringenin 6-C-β-D glucoside], for which the “Intensity (sweet)” value in experiment [1] (setting [4]) came out at 0.49. The “sweet enhancing effect for a sucrose solution (in words)” value in experiment [1] was “significant sweet enhancing effect”.

On to `O=c1cc(-c2ccc(O)c(O)c2)oc2c([C@@H]3O[C@H](CO)[C@@H](O)[C@H](O)[C@H]3O)c(O)cc(O)c12` [Compound 18, orientin], for which the “Intensity (sweet)” value in experiment [1] (setting [5]) came to 0.50. For the same compound, the “sweet enhancing effect for a sucrose solution (in words)” value in experiment [1] is “significant sweet enhancing effect”.

`O=C(CCc1ccc(O)cc1)c1c(O)c([C@@H]2O[C@H](CO)[C@@H](O)[C@H](O)[C@H]2O)c(O)c([C@@H]2O[C@H](CO)[C@@H](O)[C@H](O)[C@H]2O)c1O` [Compound 22, Phloretin-3′,5′-di-C-β-D-glucoside]: the “Intensity (sweet)” value amounted to 0.25 in experiment [2] (dosage 40 ppm) and 0.23 in experiment [1] (setting [5]). The “sweet enhancing effect for an SG95 stevia product solution (in words)” value in experiment [2] is “sweet enhancing effect”. In addition, in experiment [1], the “sweet enhancing effect for a sucrose solution (in words)” value is given as “sweet enhancing effect”. Moreover, the “Intensity (lingering)” value in experiment [3] (dosage 40 ppm, scale -5 (strong masking) to 5, 0 = reference 0.02% SG95) is −0.33. For the same compound, the “off taste masking effect for an SG95 stevia product solution (in words)” value in experiment [3] (lingering) was “lingering masking”.

Take `O=C(CCc1ccc(O)cc1)c1c(O)cc(O[C@@H]2O[C@H](CO)[C@@H](O)[C@H](O)[C@H]2O)c([C@@H]2O[C@H](CO)[C@@H](O)[C@H](O)[C@H]2O)c1O` [Compound 13, trilobatin 3′-C-β-D glucoside]: in experiment [1] (setting [4]), the “Intensity (sweet)” value was 0.67. Moreover, the “sweet enhancing effect for a sucrose solution (in words)” value in experiment [1] was “significant sweet enhancing effect”.

In the case of `CC1OC(c2c(O)cc3c(c2O)C(=O)CC(c2ccc(O)cc2)O3)C(O)C(O)C1O` (stereo not drawn) [Compound 16, naringenin 6-C-rhamnoside], in experiment [1], the “sweet enhancing effect for a sucrose solution (in words)” value is reported as “sweet enhancing effect”.

As to `O=C(CCc1ccc(O)c(O)c1)c1c(O)cc(O)c([C@@H]2O[C@H](CO)[C@@H](O)[C@H](O)[C@H]2O)c1O` [Compound 20, aspalathin], in experiment [1] (setting [4]), the “Intensity (sweet)” value came to 0.42. For the same compound, the “sweet enhancing effect for a sucrose solution (in words)” value in experiment [1] was “significant sweet enhancing effect”.

Turning to `O=c1cc(-c2ccc(O)c(O)c2)oc2cc(O)c([C@@H]3O[C@H](CO)[C@@H](O)[C@H](O)[C@H]3O)c(O)c12` [Compound 17, Isoorientin], in experiment [1] (setting [5]), the “Intensity (sweet)” value stood at 0.25. Besides, the “sweet enhancing effect for a sucrose solution (in words)” value in experiment [1] is “sweet enhancing effect”.

Consider `O=c1cc(-c2ccc(O)cc2)oc2c([C@@H]3O[C@H](CO)[C@@H](O)[C@H](O)[C@H]3O)c(O)cc(O)c12` [Compound 23], for which the “Intensity (sweet)” value in experiment [1] (setting [4]) came out at 0.50. For the same compound, the “sweet enhancing effect for a sucrose solution (in words)” value in experiment [1] was “significant sweet enhancing effect”.

These data come from patent US20250331542A1, “SWEETENER COMPOSITIONS” (Firmenich SA, priority 2022, published 2025).
